Assay results taken from paper PMC7255801, “Disease-associated mutations in the human TRPM3 render the channel overactive via two distinct mechanisms” (eLife, 2020).

Assays:
non-injected oocytes = assay: Two electrode voltage clamp in non-injected oocytes; type: cell-based, Xenopus laevis; settings: 50 μM, n = 5
Protocol: (§1) Xenopus laevis oocytes were prepared as described earlier ([Badheka et al., 2015]). All animal procedures were approved by the Institutional Animal Care and Use Committee at Rutgers New Jersey Medical School. In brief, frogs were anesthetized in 0.25% ethyl 3-aminobenzoate methanesulfonate solution (MS222; Sigma-Aldrich); bags of ovaries were removed surgically from the anesthetized frogs. Individual oocytes were obtained by overnight digestion at 16°C in 0.2–0.3 mg/ml type 1A collagenase (Sigma-Aldrich), dissolved in a solution containing 82.5 mM NaCl, 2 mM KCl, 1 mM MgCl2, and […] HEPES, pH 7.4 (OR2 solution). The next day the collagenase containing solution was discarded and the oocytes were washed multiple times with OR2 solution. […]
(§2) Two electrode voltage clamp experiments were performed as described ([Badheka et al., 2015]). In brief, oocytes were placed in extracellular solution (97 mM NaCl, 2 mM KCl, 1 mM MgCl2, and […] HEPES, pH 7.4), and currents were recorded with thin-wall inner filament– containing glass pipettes (World Precision Instruments) filled with 3 M KCl in 1% agarose. Currents were measured with a ramp protocol from −100 to 100 mV once every 0.5 s with a GeneClamp 500B amplifier and analyzed with the pClamp 9.0 software (Molecular Devices). […]

wild-type hTRPM3_1325 = target: T1, wild-type hTRPM3_1325 (Homo sapiens, UniProt Q9HCF6); assay: Two electrode voltage clamp in Xenopus oocytes, wild type channel; type: cell-based; settings: wild type TRPM3, 50 μM, room temperature (20–22°C)
T1 construct: expressed in transfected cells; host or cells: Xenopus laevis oocytes (cRNA injection)
T1 sequence (Q9HCF6 1-1325 isoform Q9HCF6-10): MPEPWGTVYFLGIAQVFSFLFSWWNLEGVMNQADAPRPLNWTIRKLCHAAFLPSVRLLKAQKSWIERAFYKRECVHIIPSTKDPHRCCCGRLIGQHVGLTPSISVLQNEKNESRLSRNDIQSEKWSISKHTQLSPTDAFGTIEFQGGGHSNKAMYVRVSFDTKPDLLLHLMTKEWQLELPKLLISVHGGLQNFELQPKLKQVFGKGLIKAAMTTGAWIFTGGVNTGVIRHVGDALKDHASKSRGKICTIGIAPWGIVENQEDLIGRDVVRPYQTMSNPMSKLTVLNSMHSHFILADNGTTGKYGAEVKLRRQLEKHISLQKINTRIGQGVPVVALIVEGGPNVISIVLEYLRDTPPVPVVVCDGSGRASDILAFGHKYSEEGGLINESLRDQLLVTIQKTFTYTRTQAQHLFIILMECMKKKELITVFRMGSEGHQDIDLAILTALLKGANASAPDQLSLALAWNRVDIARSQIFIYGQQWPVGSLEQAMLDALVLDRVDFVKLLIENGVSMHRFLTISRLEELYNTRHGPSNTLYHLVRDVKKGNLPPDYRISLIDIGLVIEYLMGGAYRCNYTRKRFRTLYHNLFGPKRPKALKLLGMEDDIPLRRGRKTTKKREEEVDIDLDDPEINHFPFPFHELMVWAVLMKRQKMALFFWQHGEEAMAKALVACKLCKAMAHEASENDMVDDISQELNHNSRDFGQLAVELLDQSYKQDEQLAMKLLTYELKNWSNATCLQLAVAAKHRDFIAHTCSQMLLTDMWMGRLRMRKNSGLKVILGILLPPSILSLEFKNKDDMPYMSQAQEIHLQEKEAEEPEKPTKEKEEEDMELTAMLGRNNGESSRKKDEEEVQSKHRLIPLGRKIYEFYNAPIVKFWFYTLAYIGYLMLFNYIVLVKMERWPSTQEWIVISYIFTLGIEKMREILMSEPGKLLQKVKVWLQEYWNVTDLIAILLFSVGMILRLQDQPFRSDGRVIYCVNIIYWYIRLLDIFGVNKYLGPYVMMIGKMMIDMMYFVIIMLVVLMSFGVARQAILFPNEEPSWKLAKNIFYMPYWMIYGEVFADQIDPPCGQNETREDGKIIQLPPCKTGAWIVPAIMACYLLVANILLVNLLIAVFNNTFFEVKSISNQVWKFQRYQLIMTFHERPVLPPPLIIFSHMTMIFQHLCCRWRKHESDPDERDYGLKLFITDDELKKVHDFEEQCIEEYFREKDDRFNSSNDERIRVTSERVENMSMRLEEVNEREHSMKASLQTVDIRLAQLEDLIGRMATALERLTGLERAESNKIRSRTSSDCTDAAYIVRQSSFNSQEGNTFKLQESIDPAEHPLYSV
Protocol: as §1, §2

CCC1(c2ccccc2)C(=O)NCNC1=O [primidone]
Inhibition of basal current (non-injected oocytes): did not induce any inhibition
Inhibition of basal current (wild-type hTRPM3_1325): small reduction
